Measurements as given in publication PMC6792352, “Limited Chemical Structural Diversity Found to Modulate Thyroid Hormone Receptor in the Tox21 Chemical Library” (Environmental Health Perspectives, 2019).
Where a name gives a salt, the structure may show the parent alone.

Assay: in vitro
Details: rat, gh3-tre-luc cells, AC50 (uM) modified / 1000

SMILES | CC50 at 24 h
O=C(CS)Nc1ccccc1 [Thioglycolic acid anilide] | 33.8 µM
O=C(O)CS [Thioglycolic acid] | > 90 µM
OC[C@H]1O[C@@H](n2cnc3c(S)ncnc32)[C@H](O)[C@@H]1O [Thioinosine] | > 50 µM
CCCC(C)C1(CC)C(=O)NC(=S)NC1=O (centres unmarked) [Thiopental sodium] | > 50 µM
COC(=O)NC(=S)Nc1ccccc1NC(=S)NC(=O)OC [Thiophanate-methyl] | > 90 µM
CCOC(=O)NC(=S)Nc1ccccc1NC(=S)NC(=O)OCC [Thiophanate] | > 90 µM
c1ccsc1 [Thiophene] | > 90 µM
CN1CCN(CCCN2c3ccccc3Sc3ccc(S(=O)(=O)N(C)C)cc32)CC1 [Thioproperazine dimethanesulfonate] | 14.2 µM
CSc1ccc2c(c1)N(CCC1CCCCN1C)c1ccccc1S2 (centres unmarked) [Thioridazine hydrochloride] | 7.04 µM
NNC(N)=S [Thiosemicarbazide] | > 100 µM
S=P(N1CC1)(N1CC1)N1CC1 [Thiotepa] | > 100 µM
CN1CCN(CC/C=C2/c3ccccc3Sc3ccc(S(=O)(=O)N(C)C)cc32)CC1 [Thiothixene] | 10.7 µM
O=c1cc[nH]c(=S)[nH]1 [Thiouracil] | > 90 µM
NC(N)=S [Thiourea] | > 90 µM
O=c1oc2cc(O)ccc2s1 [Thioxolone] | > 50 µM
CCCCCCCCCCCCCCCC[N+](C)(C)CCN(Cc1ccc(OC)cc1)c1ncccn1 [Thonzonium bromide] | 14.6 µM
COc1ccc(CN(CCN(C)C)c2ncccn2)cc1 [Thonzylamine hydrochloride] | > 50 µM
Cc1cn([C@H]2C[C@H](O)[C@@H](CO)O2)c(=O)[nH]c1=O [Thymidine] | > 50 µM

SMILES | CC50 at 24 h
Cc1cc(OI)c(C(C)C)cc1-c1cc(C(C)C)c(OI)cc1C [Thymol iodide] | > 50 µM
Cc1ccc(C(C)C)c(O)c1 [Thymol] | > 90 µM
Cc1ccsc1C(=CCCN1CCC[C@@H](C(=O)O)C1)c1sccc1C [Tiagabine hydrochloride] | > 50 µM
C=C[C@]1(C)C[C@@H](OC(=O)CSCCN(CC)CC)[C@]2(C)[C@H](C)CC[C@]3(CCC(=O)[C@H]32)[C@@H](C)[C@@H]1O [Tiamulin] | 14.1 µM
CCN(CC)CCNC(=O)c1cc(S(C)(=O)=O)ccc1OC [Tiapride hydrochloride] | > 20 µM
CC(C(=O)O)c1ccc(C(=O)c2ccccc2)s1 (centres unmarked) [Tiaprofenic acid] | > 20 µM
O=C(Cn1c(=O)sc2ccc(Cl)cc21)N1CCN(CCO)CC1 [Tiaramide hydrochloride] | > 50 µM
C#C[C@]1(O)CC[C@H]2[C@@H]3[C@H](C)CC4=C(CCC(=O)C4)[C@H]3CC[C@@]21C [Tibolone] | 51.8 µM
O=C(Nc1ccc(Br)cc1)c1cc(Br)c(Br)s1 [Tibrofan] | 19.8 µM
CC1(C)S[C@@H]2[C@H](NC(=O)C(C(=O)O)c3ccsc3)C(=O)N2[C@H]1C(=O)O (some centres unmarked) [Ticarcillin disodium] | > 50 µM
Clc1ccccc1CN1CCc2sccc2C1 [Ticlopidine] | 21.6 µM
O=C(O)COc1ccc(C(=O)c2cccs2)c(Cl)c1Cl [Ticrynafen] | > 50 µM
CN(C)c1cc(NC(=O)CNC(C)(C)C)c(O)c2c1C[C@H]1C[C@H]3[C@H](N(C)C)C(O)=C(C(N)=O)C(=O)[C@@]3(O)C(O)=C1C2=O [Tigecycline] | > 50 µM
CNC(=N)NCCC[C@H](N)C(=O)O [Tilarginine acetate] | > 50 µM
CCNC1(c2cccs2)CCCCC1=O (centres unmarked) [Tiletamine hydrochloride] | > 20 µM
Cc1ccc(O)c2ncccc12 [Tiliquinol] | 4.67 µM
CC[C@H]1OC(=O)C[C@@H](O)[C@H](C)[C@@H](O[C@@H]2O[C@H](C)[C@@H](O)[C@H](N(C)C)[C@H]2O)[C@@H](CCN2C[C@H](C)C[C@H](C)C2)C[C@@H](C)C(=O)/C=C/C(C)=C/[C@@H]1CO[C@@H]1O[C@H](C)[C@@H](O)[C@@H](OC)[C@H]1OC [Tilmicosin] | > 50 µM
